The text below walks through data of patent US9808448B2, “Pharmaceutical compounds and use of same in cancer and tauopathies” (THE REGENTS OF THE UNIVERSITY OF MICHIGAN, priority 2013, dated 2017).

A value given as a limit tells only on which side of the number the result lay.

The assay has as its system MDA-MB-231. The assay is described as follows: Cancer activity screen (MTT cell survival), MDA-MB-231. The format is cell-based. Conditions: Homo sapiens, second table.
In general, IC50 refers to the midpoint of a concentration-inhibition curve. In turn, `CCn1c(=O)/c(=C2\Sc3cc(OC(F)(F)F)ccc3N2C)s/c1=C\c1scc[n+]1Cc1ccc(C(F)(F)F)o1` came in with a half-maximal inhibitory concentration (IC50) of 0.51 ± 0.03 µM.

In the case of `COC(=O)Cn1c(=O)/c(=C2\Sc3cc(F)ccc3N2C)s/c1=C\c1ccncc1`, it took 2 ± 0.2 µM to reach half-maximal inhibition (IC50). This IC50 lies about 3.9-fold higher than the previous one. With `CCn1c(=O)/c(=C2\Sc3cc(Cl)ccc3N2C)s/c1=C\c1scc[n+]1Cc1ccc(C(=O)OC)o1` the figure was 0.97 ± 0.1 µM; with `CN1/C(=c2\s/c(=C\c3ccncc3)n(CC(=O)O)c2=O)Sc2cc(F)ccc21`, above 20 µM.

Molecule `CCn1c(=O)/c(=C2\Sc3cc(F)ccc3N2C)s/c1=C\c1scc[n+]1Cc1ccccc1C(F)(F)F` came in with an IC50 of 0.21 ± 0.03 µM. Take `COC(=O)CCn1c(=O)/c(=C2\Sc3cc(F)ccc3N2C)s/c1=C\c1scc[n+]1Cc1ccccc1`: the IC50 turned out to be 0.96 ± 0.07 µM. `COC(=O)Cn1c(=O)/c(=C2\Sc3cc(C(F)(F)F)ccc3N2C)s/c1=C\c1cccc[n+]1C` registered a 50% inhibitory concentration (IC50) above 20 µM. With `COC(=O)Cn1c(=O)/c(=C2\Sc3ccc(F)cc3N2C)s/c1=C\c1ccccn1` the figure was above 20 µM; with `CN1/C(=c2\s/c(=C\c3scc[n+]3Cc3ccccc3)n(C3CC3)c2=O)Sc2cc(Cl)ccc21`, 0.56 ± 0.08 µM; with `COC(=O)Cn1c(=O)/c(=C2\Sc3cc(F)ccc3N2C)s/c1=C\c1ccccn1`, above 20 µM. For the molecule `CCn1c(=O)/c(=C2\Sc3cc(Cl)ccc3N2C)s/c1=C\c1scc[n+]1Cc1cccc(C(F)(F)F)c1`, the 50% inhibitory concentration (IC50) came out at 0.4 ± 0.04 µM.

In the case of `COC(=O)Cn1c(=O)/c(=C2\Sc3cccc(F)c3N2C)s/c1=C\c1ccccn1`, the concentration for half-maximal inhibition (IC50) is above 20 µM. Under `CCn1c(=O)/c(=C2\Sc3c(ccc(F)c3F)N2C)s/c1=C\c1scc[n+]1Cc1ccsc1` stands 0.81 ± 0.06 µM; under `CCn1c(=O)/c(=C2\Sc3cc(Cl)ccc3N2C)s/c1=C\c1scc[n+]1Cc1ccsc1C(=O)OC`, 0.076 ± 0.01 µM. As to `CCN1C(=O)/C(=C2\Sc3ccc(F)cc3N2C)S/C1=N\c1ccccc1`, the half-inhibitory concentration (IC50) worked out at 9.18 ± 1.04 µM. Under `CCn1c(=O)/c(=C2\Sc3ccc(C)cc3N2C)s/c1=C\c1scc[n+]1Cc1ccccc1` stands 0.078 ± 0.01 µM. With `CCn1c(=O)/c(=C2\Sc3cc(OC(F)(F)F)ccc3N2C)s/c1=C\c1cccc[n+]1Cc1ccccc1` the figure was 0.71 ± 0.12 µM. In turn, `CCn1c(=O)/c(=C2\Sc3cc(Cl)ccc3N2C)s/c1=C\c1scc[n+]1Cc1cccc(F)c1` returned a half-inhibitory concentration (IC50) of 1.01 ± 0.16 µM. This IC50 and that of the molecule before are within 1.5-fold of each other. Under `CCn1c(=O)/c(=C2\Sc3cc(Cl)ccc3N2C)s/c1=C\c1scc[n+]1Cc1ccsc1` stands 0.11 ± 0.01 µM; under `CCn1c(=O)/c(=C2\Sc3c(ccc(F)c3F)N2C)s/c1=C\c1cccc[n+]1Cc1cc(-c2ccccc2)no1`, 1.33 ± 0.2 µM. Under `COC(=O)CCn1c(=O)/c(=C2\Sc3cc(Cl)ccc3N2C)s/c1=C\c1scc[n+]1Cc1ccccc1` stands 0.24 ± 0.03 µM.

For the molecule `CCn1c(=O)/c(=C2\Sc3cc(F)ccc3N2C)s/c1=C\c1scc[n+]1Cc1ccsc1C(=O)OC`, inhibition was half-maximal at 0.14 ± 0.02 µM (IC50). With `CCn1c(=O)/c(=C2\Sc3c(ccc(F)c3F)N2C)s/c1=C\c1cccc[n+]1Cc1ccsc1Br` the figure was 0.92 ± 0.17 µM; with `CCn1c(=O)/c(=C2\Sc3cccc(C)c3N2C)s/c1=C\c1scc[n+]1Cc1ccccc1`, 0.21 ± 0.04 µM; with `CCn1c(=O)/c(=C2\Sc3ccc(Cl)cc3N2C)s/c1=C\c1scc[n+]1Cc1ccsc1C(=O)OC`, 0.16 ± 0.02 µM. Under `CCn1c(=O)/c(=C2\Sc3ccc(Cl)cc3N2C)s/c1=C\c1nccs1` stands 1.5 ± 0.3 µM. With `CCn1c(=O)/c(=C2\Sc3c(C)cccc3N2C)s/c1=C\c1scc[n+]1Cc1ccccc1` the figure was 0.25 ± 0.03 µM.

`COC(=O)Cn1c(=O)/c(=C2\Sc3cccc(F)c3N2C)s/c1=C\c1ccncc1` came in with an IC50 above 20 µM. Under `CCn1c(=O)/c(=C2\Sc3cc(F)ccc3N2C)s/c1=C\c1scc[n+]1Cc1ccc(C(=O)OC)o1` stands 3.05 ± 0.42 µM. With `CCn1c(=O)/c(=C2\Sc3ccc(Cl)cc3N2C)s/c1=C\c1scc[n+]1Cc1cc(C)on1` the figure was 1.05 ± 0.09 µM. Regarding `COC(=O)CCn1c(=O)/c(=C2\Sc3cc(Cl)ccc3N2C)s/c1=C\c1ccccn1`, the half-maximal inhibitory concentration (IC50) was above 20 µM. With `CCn1c(=O)/c(=C2\Sc3c(ccc(F)c3F)N2C)s/c1=C\c1scc[n+]1Cc1ccc(C(F)(F)F)o1` the figure was 0.51 ± 0.05 µM; with `CCn1c(=O)/c(=C2\Sc3cc(C)ccc3N2C)s/c1=C\c1scc[n+]1Cc1ccccc1`, 0.041 ± 0.006 µM.

In turn, `CCn1c(=O)/c(=C2\Sc3cc(Cl)ccc3N2C)s/c1=C\c1scc[n+]1Cc1cccnc1Br` returned a half-maximal inhibitory concentration (IC50) of 1.6 ± 0.2 µM. With `CCn1c(=O)/c(=C2\Sc3cc(Cl)ccc3N2C)s/c1=C\c1scc[n+]1Cc1ccsc1Br` the figure was 0.2 ± 0.02 µM; with `CN1/C(=c2\s/c(=C\c3scc[n+]3Cc3ccccc3)n(C3CC3)c2=O)Sc2cc(F)ccc21`, 0.76 ± 0.08 µM.

As for `CCn1c(=O)/c(=C2\Sc3cc(Cl)ccc3N2C)s/c1=C\c1scc[n+]1Cc1ccccc1C(F)(F)F`, it took 0.13 ± 0.01 µM to reach half-maximal inhibition (IC50). In turn, `COC(=O)[C@@H](C)n1c(=O)/c(=C2\Sc3cc(F)ccc3N2C)s/c1=C\c1ccccn1` displayed a 50% inhibitory concentration (IC50) above 20 µM. `CCn1c(=O)/c(=C2\Sc3cc(Cl)ccc3N2C)s/c1=C\c1scc[n+]1Cc1ccc(F)cc1` gave a half-inhibitory concentration (IC50) of 1.07 ± 0.19 µM. With `CCn1c(=O)/c(=C2\Sc3cc(Cl)ccc3N2C)s/c1=C\c1scc[n+]1Cc1cc(-c2ccccc2)no1` the figure was 0.17 ± 0.01 µM. With `CCn1c(=O)/c(=C2\Sc3ccc(S(C)(=O)=O)cc3N2C)s/c1=C\c1scc[n+]1Cc1ccccc1` the figure was above 20 µM; with `CCn1c(=O)/c(=C2\Sc3c(ccc(F)c3F)N2C)s/c1=C\c1cccc[n+]1Cc1ccc(C(F)(F)F)o1`, 0.92 ± 0.1 µM; with `CCn1c(=O)/c(=C2\Sc3ccc(Cl)cc3N2C)s/c1=C\c1scc[n+]1C`, 3.1 ± 0.4 µM. For the molecule `CCn1c(=O)/c(=C2\Sc3ccc(Cl)cc3N2C)s/c1=C\c1scc[n+]1Cc1cc(-c2ccccc2)no1`, the 50% inhibitory concentration (IC50) came out at 0.5 ± 0.04 µM. With `CCn1c(=O)/c(=C2\Sc3c(ccc(F)c3F)N2C)s/c1=C\c1cccc[n+]1Cc1ccsc1C(=O)OC` the figure was 1.95 ± 0.27 µM.

Molecule `COC(=O)Cn1c(=O)/c(=C2\Sc3cc(F)ccc3N2C)s/c1=C\c1scc[n+]1Cc1ccccc1` yielded an IC50 of 2.9 ± 0.3 µM. The IC50 values of the last two molecules are within 1.5-fold of each other. Under `CCn1c(=O)/c(=C2\Sc3cc(Cl)ccc3N2C)s/c1=C\c1scc[n+]1Cc1csc(C)n1` stands 0.74 ± 0.07 µM; under `CCOC(=O)c1ccc(C[n+]2ccsc2/C=c2\s/c(=C3/Sc4cc(Cl)ccc4N3C)c(=O)n2CC)o1`, 0.72 ± 0.08 µM. Under `CCn1c(=O)/c(=C2\Sc3ccc(Cl)cc3N2C)s/c1=C\c1scc[n+]1Cc1ccc(C(F)(F)F)o1` stands 0.3 ± 0.02 µM; under `CN1/C(=c2\s/c(=C\c3scc[n+]3Cc3ccccc3C(F)(F)F)n(C)c2=O)Sc2c1ccc(F)c2F`, 0.12 ± 0.009 µM; under `COC(=O)CCn1c(=O)/c(=C2\Sc3cc(F)ccc3N2C)s/c1=C\c1ccccn1`, 9 ± 1.7 µM.

For `CCn1c(=O)/c(=C2\Sc3c(ccc(F)c3F)N2C)s/c1=C\c1nccs1`, the IC50 is 11.7 ± 2.3 µM. Under `CCn1c(=O)/c(=C2\Sc3c(ccc(F)c3F)N2C)s/c1=C\c1cccc[n+]1Cc1cc(C)on1` stands 3.72 ± 0.41 µM. With `CCn1c(=O)/c(=C2\Sc3cc(C(F)(F)F)ccc3N2C)s/c1=C\c1nccs1` the figure was 2.6 ± 0.5 µM; with `CCn1c(=O)/c(=C2\Sc3ccc(Cl)cc3N2C)s/c1=C\c1cccc[n+]1Cc1ccccc1`, 0.34 ± 0.03 µM. Under `CCn1c(=O)/c(=C2\Sc3ccc(Cl)cc3N2C)s/c1=C\c1scc[n+]1Cc1ccccc1C(F)(F)F` stands 0.25 ± 0.03 µM. The molecule `CCn1c(=O)/c(=C2\Sc3cc(F)ccc3N2C)s/c1=C\c1scc[n+]1Cc1ccccc1` showed an IC50 of 0.15 ± 0.01 µM.

`CCn1c(=O)/c(=C2\Sc3cc(Cl)ccc3N2C)s/c1=C\c1scc[n+]1Cc1ccc(C(F)(F)F)o1`: the IC50 was 0.12 ± 0.02 µM. `CCn1c(=O)/c(=C2\Sc3c(ccc(F)c3F)N2C)s/c1=C\c1scc[n+]1Cc1ccsc1C(=O)OC` yielded a concentration for half-maximal inhibition (IC50) of 0.21 ± 0.03 µM. Under `CCn1c(=O)/c(=C2\Sc3cc(Cl)ccc3N2C)s/c1=C\c1scc[n+]1Cc1ccccc1F` stands 0.29 ± 0.04 µM; under `CCn1c(=O)/c(=C2\Sc3cc(F)ccc3N2C)s/c1=C\c1scc[n+]1Cc1ccc(C(F)(F)F)o1`, 0.16 ± 0.03 µM. Under `CCn1c(=O)/c(=C2\Sc3cc(C#N)ccc3N2C)s/c1=C\c1ccccn1` stands 22.3 ± 4.61 µM; under `COC(=O)Cn1c(=O)/c(=C2\Sc3cc(Cl)ccc3N2C)s/c1=C\c1scc[n+]1Cc1ccccc1`, above 20 µM; under `CCn1c(=O)/c(=C2\Sc3cc(Cl)ccc3N2C)s/c1=C\c1scc[n+]1Cc1ccc([N+](=O)[O-])o1`, above 30 µM. Under `C=CCn1c(=O)/c(=C2\Sc3cccc(F)c3N2C)s/c1=C\c1ccncc1` stands 0.38 ± 0.03 µM; under `CCn1c(=O)/c(=C2\Sc3cc(C(F)(F)F)ccc3N2C)s/c1=C\c1scc[n+]1C`, 8.5 ± 1 µM; under `COC(=O)Cn1c(=O)/c(=C2\Sc3c(F)cccc3N2C)s/c1=C\c1ccncc1`, above 20 µM.

Molecule `CCn1c(=O)/c(=C2\Sc3c(ccc(F)c3F)N2C)s/c1=C\c1scc[n+]1Cc1cc(C)on1` registered an IC50 of 1.33 ± 0.11 µM.

For `CCn1c(=O)/c(=C2\Sc3cc(C#N)ccc3N2C)s/c1=C\c1cccc[n+]1Cc1ccccc1`, half-maximal inhibition (IC50) required 1.4 ± 0.1 µM. With `CCn1c(=O)/c(=C2\Sc3ccc(Cl)cc3N2C)s/c1=C\c1scc[n+]1Cc1ccsc1` the figure was 0.44 ± 0.05 µM; with `COC(=O)Cn1c(=O)/c(=C2\Sc3c(F)cccc3N2C)s/c1=C\c1ccccn1`, above 20 µM; with `COC(=O)Cn1c(=O)/c(=C2\Sc3ccc(F)cc3N2C)s/c1=C\c1ccncc1`, above 20 µM. Under `CCn1c(=O)/c(=C2\Sc3cc(Cl)ccc3N2C)s/c1=C\c1scc[n+]1Cc1ccc(C(F)(F)F)cc1` stands 1.2 ± 0.15 µM; under `CCn1c(=O)/c(=C2\Sc3c(ccc(F)c3F)N2C)s/c1=C\c1scc[n+]1C`, 5.6 ± 0.6 µM; under `COC(=O)Cn1c(=O)/c(=C2\Sc3cc(C(F)(F)F)ccc3N2C)s/c1=C\c1scc[n+]1Cc1ccccc1`, 2.1 ± 0.4 µM. Under `CCn1c(=O)/c(=C2\Sc3c(ccc(F)c3F)N2C)s/c1=C\c1scc[n+]1Cc1ccsc1Br` stands 0.48 ± 0.06 µM; under `CCn1c(=O)/c(=C2\Sc3cc(Cl)ccc3N2C)s/c1=C\c1nccs1`, 2.3 ± 0.6 µM. With `CCn1c(=O)/c(=C2\Sc3cc(C(F)(F)F)ccc3N2C)s/c1=C\c1cccc[n+]1CC`, the half-maximal inhibitory concentration (IC50) was 2.7 ± 0.6 µM. Molecule `CCn1c(=O)/c(=C2\Sc3ccc(OC(F)(F)F)cc3N2C)s/c1=C\c1scc[n+]1Cc1ccccc1` gave an IC50 of 1.25 ± 0.13 µM.
